According to publication PMC7484342 (Journal of molecular biology, 2020):

Columns and labels:
purified TrVKORL = molecular target: T1, purified TrVKORL (Takifugu rubripes, UniProt Q6TEK8); assay: Fluorometric activity assay of purified TrVKORL; assay type: biochemical
T1 sequence (Q6TEK8 1-175): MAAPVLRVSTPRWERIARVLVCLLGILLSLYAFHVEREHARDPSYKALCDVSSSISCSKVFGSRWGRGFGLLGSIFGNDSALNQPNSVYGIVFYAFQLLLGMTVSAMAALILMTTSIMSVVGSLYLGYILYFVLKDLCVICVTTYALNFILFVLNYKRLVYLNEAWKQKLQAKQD

[1] = molecular target: purified complex of hVKOR and warfarin (Homo sapiens, UniProt Q9BQB6); details: DTT as reductant
Chain of purified complex of hVKOR and warfarin (Q9BQB6 whole entry, one chain of several): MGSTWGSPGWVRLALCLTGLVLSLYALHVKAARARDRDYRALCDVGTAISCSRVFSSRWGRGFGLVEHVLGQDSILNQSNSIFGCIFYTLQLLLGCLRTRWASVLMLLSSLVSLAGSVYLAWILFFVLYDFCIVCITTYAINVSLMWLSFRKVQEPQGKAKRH

purified hVKORL = molecular target: T2, purified hVKORL (Homo sapiens, UniProt Q8N0U8); assay: Fluorometric activity assay of purified hVKORL; assay type: biochemical; details: IC50, purified and analyzed in LMNG, GSH, 250 nM enzyme, KO as substrate
T2 sequence (Q8N0U8 1-176): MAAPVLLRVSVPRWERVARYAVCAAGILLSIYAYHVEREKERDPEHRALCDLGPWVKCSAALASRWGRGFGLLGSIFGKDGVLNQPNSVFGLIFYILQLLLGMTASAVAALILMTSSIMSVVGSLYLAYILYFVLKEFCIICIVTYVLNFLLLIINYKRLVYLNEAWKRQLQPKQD

hVKORL = molecular target: T3, hVKORL (Homo sapiens, UniProt Q8N0U8); assay: Cell-based activity assay
T3 sequence (Q8N0U8 1-176): T2 sequence (Q8N0U8 1-176)

[2] = molecular target: T4, Takifugu rubripes VKOR-like (TrVKORL) (Takifugu rubripes, UniProt Q6TEK8); assay: Cell-based activity assay
T4 sequence (Q6TEK8 1-175): T1 sequence (Q6TEK8 1-175)

Structure (SMILES)	decrease of KM with GSH reduction compared to DTT reduction (purified TrVKORL; TrVKORL, KO as substrate)	IC50 (purified TrVKORL; IC50 of warfarin, in presence of GSH, enzyme concentration 500 nM, KO or K)	Ki (purified TrVKORL; Ki^app estimated from the Morrison equation, GSH, K as substrate, low enzyme concentration)	IC50 (purified TrVKORL; apparent IC50, GSH as reductant, 500 nM TrVKORL, K as substrate)	IC50 (purified TrVKORL; apparent IC50, GSH as reductant, 500 nM TrVKORL, KO as substrate)	IC50 (purified TrVKORL; warfarin IC50, DTT as reductant, 500 nM enzyme, K as substrate)	IC50 (purified TrVKORL; warfarin IC50, DTT as reductant, 500 nM enzyme, KO as substrate)	warfarin inhibition (in words) [1]	IC50 (purified hVKORL)	IC50 (hVKORL)	IC50 [2]
CC(=CCC12OC1(C)C(=O)c1ccccc1C2=O)CCCC(C)CCCC(C)CCCC(C)C (centres unmarked) [KO, vitamin K epoxide]	3.4 fold	–	–	–	–	–	–	–	–	–	–
CC(=O)CC(c1ccccc1)c1c(O)c2ccccc2oc1=O (centres unmarked) [warfarin]	–	250 to 260 nM	29 nM	~250 nM	~260 nM	3800 nM	4700 nM	poorly inhibited	120 nM	238 nM	97 nM
